Converted amounts (≈) assume the structure as drawn.
How the values were obtained:
[1] = In vitro, non-sink, gastric transfer dissolution (0.01 N HCl then FaSSIF); type: physicochemical
Experimental: An in vitro, non-sink, gastric transfer dissolution method was developed to analyze the dissolution of abiraterone API, the generic abiraterone acetate tablets, the binary KSDs, to select ternary component for KSDs, as well as to analyze the dissolution of the ternary KSDs. For the dissolution analysis of abiraterone API and the binary and ternary KSDs, the samples (equivalent to 31 mg of abiraterone API) were loaded in an Erlenmeyer flask (dissolution vessel) containing 35 mL of 0.01N HCl (pH 2.0), placed in an incubator–shaker (Excella E24 (New Brunswick Scientific, Edison, NJ, USA)) set to 37 °C and a rotational speed of 180 rpm. After 30 min, 35 mL of FaSSIF (prepared in a 50 mM phosphate buffer at pH 6.8) was added to the dissolution vessel. At predetermined time points, samples were drawn from the dissolution vessel and centrifuged using an ultracentrifuge at 92,000 rpm for 90 s (Airfuge™, Beckman, Indianapolis, IN, USA). The supernatants were further diluted using the HPLC diluent and analyzed using the respective HPLC methods mentioned above. For the generic abiraterone acetate tablets, the whole tablet was analyzed, and the dissolution media volumes were scaled accordingly. For the selection of the ternary component, 35 mg of secondary polymer candidates were added in 35 mL of 0.01 N HCl (pH 2.0), and the dissolution of the binary KSD was conducted using the method described above. The area under the drug dissolution curve (AUDC) was calculated using the linear trapezoidal method.
For dissolution testing, we employed a two-stage, non-sink, gastric transfer dissolution method in which the sample is first exposed to acidic media, simulating fasted stomach content, followed by exposure to neutral-to-basic media, simulating fasted intestinal content.

[2] = design: method as in doi:10.1021/acs.jced.8b00566; settings: cited from earlier work
[3] = design: method as in doi:10.1021/acs.jced.8b00566; settings: cited from earlier work; remark: listed apart in the source
[4] = cited from earlier work; for FaSSIF solubility (converted): conversion of the µM value

Percent Rel. AUDC0.01 N HCl (Relative to Lot 5 KSD) ([1]; 0.01 N HCl stage, 35 mg secondary polymer added externally where stated) [%] | Percent Rel. AUDCTotal (Relative to Lot 5 KSD) ([1]; 35 mg secondary polymer added externally to 35 mL 0.01 N HCl where stated) [%] | Percent Rel. AUDCFaSSIF (Relative to Lot 5 KSD) ([1]; FaSSIF stage, 35 mg secondary polymer added externally where stated) [%] | solubility ([1]; pH 6.8, FaSSIF stage of gastric transfer dissolution, read-out: average drug concentration (solubility) in FaSSIF media) [mg/mL] | SMILES | water solubility [2] [mg/mL] | BCS (Biopharmaceutical Classification System) class [3] | permeability [3] | FaSSIF solubility [4] [µM] | FaSSIF solubility (converted) [4]
1.8 | 8.4 | 46.2 | 0.0113 (≈ 32.4 µM) | C[C@]12CC[C@H](O)CC1=CC[C@@H]1[C@@H]2CC[C@]2(C)C(c3cccnc3)=CC[C@@H]12 [Abiraterone API, Abiraterone] | 0.00305 (≈ 8.73 µM) | Class IV | low | 12.7 ± 4.2 | ~ 4.43 µg/mL
– | – | – | – | CC(=O)O[C@H]1CC[C@@]2(C)C(=CC[C@@H]3[C@@H]2CC[C@]2(C)C(c4cccnc4)=CC[C@@H]32)C1 [abiraterone acetate, Abiraterone acetate] | – | – | – | 64.6 ± 5.2 | ~ 25.29 µg/mL

Source: article PMC7238130, “Improved Dissolution and Pharmacokinetics of Abiraterone through KinetiSol® Enabled Amorphous Solid Dispersions” (Pharmaceutics, 2020)
